One assay addresses T1, human renin (Homo sapiens, UniProt P00797).
T1 sequence (P00797 67-406): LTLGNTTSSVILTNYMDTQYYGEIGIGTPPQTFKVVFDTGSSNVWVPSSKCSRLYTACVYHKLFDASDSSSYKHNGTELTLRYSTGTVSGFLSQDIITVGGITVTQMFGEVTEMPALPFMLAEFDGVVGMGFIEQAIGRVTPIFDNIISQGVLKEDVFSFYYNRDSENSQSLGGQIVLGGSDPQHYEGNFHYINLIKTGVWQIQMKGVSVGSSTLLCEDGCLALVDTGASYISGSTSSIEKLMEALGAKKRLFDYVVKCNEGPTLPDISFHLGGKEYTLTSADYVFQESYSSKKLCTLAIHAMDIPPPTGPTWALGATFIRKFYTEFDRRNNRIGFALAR
Put plainly: Human Renin Test (angiotensin I by radioimmunoassay). The format is biochemical. As to the method:
The enzyme preparation was the international reference standard for human renin while human blood plasma was the angiotensinogen substrate source. The enzyme inhibition assay involved a two-hour incurbation at 37° C. of the following final concentrations of reagents (total volume of 0.25 ml): 0.1 mG units/ml human renin, 0.05 ml human plasma, 6 mM Na2 EDTA, 2.4 mM PMSF, 1.5 mM 8-hydroxyquinoline, 0.4 mg/ml BSA, 0.024 mg/ml neomycin sulfate in a 100 mM Tris Acetate buffer, pH 7.5. The reaction was terminated by boiling for 10 min and the angiotensin I produced was determined by radioimmunoassay.
This assay is a modification of the one by Burton et al. (Biochemistry 14, 3892, 1975).

The next assay concerns hog renin. The following applies: after the injection of hog renin into nephrectomized rats; cited from earlier work.
Another assay has as its target T2, monkey renin (Macaca mulatta, UniProt Q6DLW5).
T2 construct: from tissue; host or cells: plasma of furosemide-treated Rhesus monkeys
T2 sequence (Q6DLW5 67-406): T1 sequence (P00797 67-406) with T2A, I148L, S169A, Q204P, R340H
The experiment in a line: Monkey Renin Test: plasma renin activity of Lasix treated Rhesus monkeys. The following applies: for PRA after 15 min, in words / PRA at 2 min after treatment, in words: 10 mg/kg iv, lasix treated Rhesus monkeys; for Plasma renin activity (PRA), Post-Lasix 2 min: 2 min after 10 mg/kg iv; for Plasma renin activity (PRA), Post-Lasix 2 min / Plasma renin activity (PRA), Post-Lasix 5 min / Plasma renin activity (PRA), Post-Lasix 15 min / Plasma renin activity (PRA), Pre-Lasix -24 hr / Plasma renin activity (PRA), Post-Lasix 0 hr: mean ± S.E., n = 6; for Plasma renin activity (PRA), Post-Lasix 5 min: 5 min after 10 mg/kg iv; for Plasma renin activity (PRA), Post-Lasix 15 min: 15 min after 10 mg/kg iv; for Plasma renin activity (PRA), Pre-Lasix -24 hr: baseline before lasix and before drug, group later given 10 mg/kg iv; for Plasma renin activity (PRA), Post-Lasix 0 hr: immediately before drug treatment (10 mg/kg iv). Also noted: Plasma renin activity (PRA), Pre-Lasix -24 hr / Plasma renin activity (PRA), Post-Lasix 0 hr / Plasma renin activity (PRA), Post-Lasix 2 min / Plasma renin activity (PRA), Post-Lasix 5 min / Plasma renin activity (PRA), Post-Lasix 15 min: unit not given here. Type of assay: in vivo. As to the method: Rhesus monkeys (6/group) weighing (6.3-9.9 kg) were treated with lasix (furosemide) at 2 mg/kg, both in the A.M. and P.M. on day 1. […] Plasma samples (K-EDTA) were taken before the initial lasix, immediately before the drug treatment and at 2, 5, 15 min after the treatment. Plasma renin activity (PRA) was determined by the method of Burton et al., Biochemistry 14, 3892, 1975.

Structures are written as SMILES. Residue numbers refer to the chain shown, from its start. Square brackets hold non-standard residues; d marks the D form. Peptide text beside a SMILES is read from it. * marks the point of attachment. Sta = CC(C)C[C@H](N)[C@@H](O)CC(=O)O; Isovaleryl = CC(C)CC(=O)*

Turning to `CC(C)C[C@H](NC(=O)[C@H](Cc1cccc2ccccc12)NC(=O)OC(C)(C)C)C(=O)N[C@@H](Cc1ccccc1)[C@@H](O)CO` [Compound 8, N-[(1,1-dimethylethoxy)carbonyl]-3-(1-naphthalenyl)-L-alanyl-N-[2R,3-dihydroxy-1S-(phenylmethyl)propyl]-L-leucinamide], on human renin (Dose 1.5 × 10^-5 (unit not given)), the “Activity, effect on human renin activity” value is reported as “Active”.
For the compound `CC(C)CC(=O)N[C@H](C(=O)N[C@H](C(=O)N[C@@H](CC(C)C)[C@@H](O)CC(=O)N[C@@H](C)C(=O)N[C@@H](CC(C)C)[C@@H](O)CC(=O)O)C(C)C)C(C)C` [Pepstatin, pepstatin, reference compound] (Isovaleryl-VV[Sta]A[Sta]-OH), the “Blood pressure in vivo” value with hog renin is given as “reduce blood pressure”. On monkey renin, the “PRA after 15 min, in words” value is listed as “returned to post-lasix levels”; the “PRA at 2 min after treatment, in words” value is on record as “returned to pre-lasix values”; the “Plasma renin activity (PRA), Post-Lasix 2 min” value came to 13.0 ± 0.2; the “Plasma renin activity (PRA), Post-Lasix 5 min” value was 22.7 ± 9.2. Moreover, at monkey renin, the “Plasma renin activity (PRA), Post-Lasix 15 min” value stood at 44.7 ± 5.4; the “Plasma renin activity (PRA), Pre-Lasix -24 hr” value was determined as 13.9 ± 2.5; the “Plasma renin activity (PRA), Post-Lasix 0 hr” value came out at 53.1 ± 6.1.
Take `CC(C)C[C@H](NC(=O)[C@H](Cc1ccccc1)NC(=O)OC(C)(C)C)C(=O)N[C@@H](Cc1ccccc1)[C@@H](O)CO` [Compound 4, N-[(1,1-dimethylethoxy)carbonyl]-L-phenylalanyl-N-[2R, 3-dihydroxy-1S-(phenylmethyl)propyl]-L-leucinamide]: on monkey renin, the “PRA after 15 min, in words” value is given as “still lowered”; the “PRA at 2 min after treatment, in words” value is listed as “returned to pre-lasix values”; the “Plasma renin activity (PRA), Post-Lasix 2 min” value is 8.4 ± 2.6; the “Plasma renin activity (PRA), Post-Lasix 5 min” value amounted to 15.1 ± 3.5. Further, on monkey renin, the “Plasma renin activity (PRA), Post-Lasix 15 min” value is 23.5 ± 4.6; the “Plasma renin activity (PRA), Pre-Lasix -24 hr” value turned out to be 12.2 ± 2.9; the “Plasma renin activity (PRA), Post-Lasix 0 hr” value amounted to 47.2 ± 7.9. The “Activity, effect on human renin activity” value on human renin (Dose 8.4 × 10^-6 (unit not given)) is listed as “Active”.
As to `CC(C)(C)OC(=O)N[C@@H](Cc1ccccc1)C(=O)N[C@@H](Cc1c[nH]cn1)C(=O)N[C@@H](Cc1ccccc1)[C@@H](O)CO` [Compound 7, N-[(1,1-dimethylethoxy)carbonyl]-L-phenylalanyl-N-[2R,3-dihydroxy-1S-(phenylmethyl)propyl]-L-histidinamide], the “Activity, effect on human renin activity” value at human renin (Dose 2.6 × 10^-6 (unit not given)) was “Active”.
As for `CC(C)C[C@H](NC(=O)[C@H](Cc1ccccc1)NC(=O)CC(C)(C)C)C(=O)N[C@@H](Cc1ccccc1)[C@@H](O)CO` [Compound 11, N-(3,3-dimethyl-1-oxobutyl)-L-phenylalanyl-N-[2R,3-dihydroxy-1S-(phenylmethyl)propyl]-L-leucinamide], the “Activity, effect on human renin activity” value on human renin (Dose 4 × 10^-6 (unit not given)) is “Active”.

Values taken from patent US4657931A, “N-(acyldipeptidyl)-aminoglycols” (G. D. Searle & Co., priority 1985, dated 1987).
